Experimental data taken from ChEMBL document CHEMBL1154640, “Application of desirability-based multi(bi)-objective optimization in the design of selective arylpiperazine derivates for the 5-HT1A serotonin receptor” (Eur J Med Chem, 2009).
pKi: −log10 of the molar value.

Tests used:
[1] = molecular target: T1, 5-hydroxytryptamine receptor 1A (Homo sapiens, UniProt P08908); test: Displacement of [3H]8-OH-DPAT from human recombinant 5-HT1A receptor expressed in HEK293 cells after 120 mins; format: cell-based
T1 sequence (P08908 whole entry): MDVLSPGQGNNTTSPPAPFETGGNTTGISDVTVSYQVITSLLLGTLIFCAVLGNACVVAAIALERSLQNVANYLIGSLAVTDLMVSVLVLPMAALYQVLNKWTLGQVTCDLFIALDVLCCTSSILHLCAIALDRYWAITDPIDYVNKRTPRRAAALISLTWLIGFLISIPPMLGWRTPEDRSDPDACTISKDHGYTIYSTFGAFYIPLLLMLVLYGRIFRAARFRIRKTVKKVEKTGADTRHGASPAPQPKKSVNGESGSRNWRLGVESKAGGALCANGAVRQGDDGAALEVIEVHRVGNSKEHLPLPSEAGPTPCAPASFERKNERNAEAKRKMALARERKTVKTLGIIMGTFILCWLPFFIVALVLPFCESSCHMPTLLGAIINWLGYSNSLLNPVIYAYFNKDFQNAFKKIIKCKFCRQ

[2] = molecular target: 5-hydroxytryptamine receptor 2A (Rattus norvegicus, UniProt P14842); test: Displacement of [3H]ketanserin from 5-HT2A receptor in Wistar Hannover rat brain cortex membrane
Sequence of 5-hydroxytryptamine receptor 2A (P14842 whole entry): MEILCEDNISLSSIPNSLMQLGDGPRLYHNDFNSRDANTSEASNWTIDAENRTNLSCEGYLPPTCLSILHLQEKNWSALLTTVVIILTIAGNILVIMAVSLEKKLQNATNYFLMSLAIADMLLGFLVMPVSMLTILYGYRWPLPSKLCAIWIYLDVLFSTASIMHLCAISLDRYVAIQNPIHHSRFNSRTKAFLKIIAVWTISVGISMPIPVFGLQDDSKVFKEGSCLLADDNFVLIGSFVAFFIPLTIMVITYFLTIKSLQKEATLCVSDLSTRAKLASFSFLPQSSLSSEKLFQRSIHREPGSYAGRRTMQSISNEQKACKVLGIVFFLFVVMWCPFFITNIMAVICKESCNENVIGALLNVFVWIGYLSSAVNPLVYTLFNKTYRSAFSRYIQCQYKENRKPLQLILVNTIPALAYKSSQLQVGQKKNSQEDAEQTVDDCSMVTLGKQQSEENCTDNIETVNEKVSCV

Compound | pKi [1] | pKi [2]
O=c1c2ccccc2c(=O)n(-c2ccccc2)n1CCCCN1CCN(c2cccc(Cl)c2)CC1 | 6.40 | 6.24
O=c1ccc(=O)n(-c2ccccc2)n1CCCN1CCN(c2cccc(Cl)c2)CC1 | 6.69 | 6.57
COc1ccccc1N1CCN(CCCn2c(=O)ccc(=O)n2-c2ccccc2)CC1 | 7.27 | 5.67
O=c1c2ccccc2c(=O)n(-c2ccccc2)n1CCCN1CCN(c2cccc(Cl)c2)CC1 | 6.38 | 6.18
COc1ccccc1N1CCN(CCCCn2c(=O)ccc(=O)n2-c2ccccc2)CC1 | 7.96 | 5.84
COc1ccccc1N1CCN(CCCn2c(=O)c3ccccc3c(=O)n2-c2ccccc2)CC1 | 7.52 | 6.52
O=c1ccc(=O)n(-c2ccccc2)n1CCCCN1CCN(c2cccc(Cl)c2)CC1 | 7.30 | 5.74
COc1ccccc1N1CCN(CCCCn2c(=O)c3ccccc3c(=O)n2-c2ccccc2)CC1 | 7.37 | 6.43

More lines, now with the values ahead:

pKi [1] | pKi [2] | Compound
7.00 | 6.34 | COc1ccccc1N1CCN(CCCn2cnc3ccccc3c2=O)CC1
6.63 | 7.80 | O=c1c2ccccc2ncn1CCCN1CCN(c2cccc(Cl)c2)CC1
7.44 | 6.25 | COc1ccccc1N1CCN(CCCCn2cnc3ccccc3c2=O)CC1
7.30 | 7.17 | O=c1c2ccccc2ncn1CCCCN1CCN(c2cccc(Cl)c2)CC1
